Data set [1] addresses T1, phosphomannose isomerase (PMI) (Homo sapiens, UniProt P34949).
T1 sequence (P34949 1-423): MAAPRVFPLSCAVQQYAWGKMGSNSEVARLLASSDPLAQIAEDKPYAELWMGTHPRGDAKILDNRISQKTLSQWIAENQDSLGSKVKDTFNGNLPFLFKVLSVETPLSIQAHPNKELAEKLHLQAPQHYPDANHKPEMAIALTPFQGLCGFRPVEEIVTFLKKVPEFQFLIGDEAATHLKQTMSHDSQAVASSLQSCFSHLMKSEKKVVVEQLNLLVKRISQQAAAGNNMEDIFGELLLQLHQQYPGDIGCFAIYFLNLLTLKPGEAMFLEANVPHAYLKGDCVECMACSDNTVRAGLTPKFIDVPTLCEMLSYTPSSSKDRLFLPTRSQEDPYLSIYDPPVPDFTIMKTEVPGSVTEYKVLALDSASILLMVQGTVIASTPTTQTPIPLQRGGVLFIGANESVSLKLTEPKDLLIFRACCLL
In words: PMI enzyme inhibition assay. It counts as biochemical.

Data set [2] deals with Candida albicans (ATCC 10231). The data set is described as follows: Microbial in vitro assay 640000. It counts as cell-based. On the procedure: The methods employed in this study were adapted from the scientific literature to maximize reliability and reproducibility. The reference standards were run as an integral part of each assay to ensure the validity of the results obtained. The assays were performed under conditions described below. The literature reference(s) for each assay are also provided as follows: Enza Di Modugno, Isabelle […]. […] Antimicrobial Agents Chemotherapy 3: 40-48; […]., Pursiano, […]. and Price, K. E. (1973) In Vitro Activity of the Tribactam GV 104326 against Gram-Positive, Gram-Negative, and Anaerobic Bacteria. Antimicrobial Agents and Chemotherapy, 38: 2362-2368, 1994; Enza Di Modugno, Isabelle […]. […] Antimicrobial Agents Chemotherapy 3: 40-48; and […]., Pursiano, […]. and Price, K. E. (1973) In vitro antibacterial activity of SM-7338, a carbapenem antibiotic with stability to dehydropeptidase I Antimicrobial Agents, Chemotherapy, 33 #2:215-222, 1989. 640000 Candida albicans (ATCC 10231); Culture Medium: Fluid Sabouraud Medium; […] Incubation Time/Temp: 20 hours @ 37° C.; […] Quantitation Method: Turbidity Measurement.

Data set [3] has as its system Cryptococcus neoformans (ATCC 24067). The data set is described as follows: Microbial in vitro assay 647000. It is filed as cell-based. The procedure:
The methods employed in this study were adapted from the scientific literature to maximize reliability and reproducibility. The reference standards were run as an integral part of each assay to ensure the validity of the results obtained. The assays were performed under conditions described below. The literature reference(s) for each assay are also provided as follows: Enza Di Modugno, Isabelle […]. […] Antimicrobial Agents Chemotherapy 3: 40-48; […]., Pursiano, […]. and Price, K. E. (1973) In Vitro Activity of the Tribactam GV 104326 against Gram-Positive, Gram-Negative, and Anaerobic Bacteria. Antimicrobial Agents and Chemotherapy, 38: 2362-2368, 1994; Enza Di Modugno, Isabelle […]. […] Antimicrobial Agents Chemotherapy 3: 40-48; and […]., Pursiano, […]. and Price, K. E. (1973) In vitro antibacterial activity of SM-7338, a carbapenem antibiotic with stability to dehydropeptidase I Antimicrobial Agents, Chemotherapy, 33 #2:215-222, 1989. […] Incubation Time/Temp: 2 days @37° C.; […] Time of Assessment: 2 days; Quantitation Method: Turbidity Measurement

Data set [4] concerns the target T2, phosphomannomutase 2 (PMM) (Homo sapiens, UniProt O15305).
T2 sequence (O15305 1-246): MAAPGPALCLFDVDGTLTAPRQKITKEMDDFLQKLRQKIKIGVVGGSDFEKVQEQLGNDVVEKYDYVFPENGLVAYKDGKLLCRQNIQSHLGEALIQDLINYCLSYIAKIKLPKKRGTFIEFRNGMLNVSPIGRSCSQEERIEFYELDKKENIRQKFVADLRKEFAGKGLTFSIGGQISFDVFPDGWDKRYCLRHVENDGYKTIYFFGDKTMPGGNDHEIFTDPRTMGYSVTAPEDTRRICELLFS
In words: PMM enzyme inhibition assay. It is filed as biochemical. The conditions noted are these: for pIC50: mean of at least three determinations.

For data set [5], the system named is protein glycosylation (mannose incorporated in proteins). The data set is described as follows: Cellular assay: 3H-mannose incorporated in proteins vs glycolysis. It is filed as cell-based. The procedure: A cellular assay was developed and utilized to provide proof-of-concept for the potential of the optimized PMI inhibitors as CDG therapeutics. […] Briefly. cells were preincubated with inhibitors and labeled with 3H-Mannose and 35S-Met/Cys. After washing and lysis, 3H- and 35S amounts were determined in the proteins.

The nature of data set [6]: Parallel Artificial Membrane Permeability Assay (PAMPA). Particulars: diffusion through a lipid membrane. It counts as in vitro ADME. An excerpt:
(§1) ADME (absorption, distribution, metabolism, elimination) provides an efficient means of discovering potential issues with respect to bioavailability and the potential for in vivo efficiency. The microsomal stability assay measures a compound's potential to be metabolized by the liver and can also identify metabolic liabilities. The plasma stability assay gives essential information on whether a compound will be degraded in plasma. Finally, the Parallel Artificial Membrane Permeability Assay (PAMPA) measures compound diffusion rates through an artificial membrane to give valuable information on a compounds potential for intestinal absorption and tissue and cell permeability. [table]
In general terms: PAMPA measures passive passage across an artificial lipid membrane.

A further data set is described as follows: Plasma stability, human. It counts as in vitro ADME.
Description: as §1

Another data set can be described thus: Plasma stability, mouse. It is filed as in vitro ADME.
Description: as §1

A short description of data set [7]: Microsomal stability, human. It is filed as in vitro ADME. The conditions noted are these: human liver microsomes.
Description: as §1
A general note: Liver microsomes are a subcellular fraction often used to study metabolism.

Data set [8] in a line: Microsomal stability, mouse. It counts as in vitro ADME. The conditions noted are these: mouse liver microsomes.
Description: as §1

The mark [9] stands for this setting: reference standard run with the assay.
Setting [10] is: mean of at least three determinations.

Molecules are shown by their SMILES. pIC50: −log10 of the molar value. Converted amounts (≈) assume the structure as drawn. Read-outs that look alike come from different tables or passages of the source.

The text below walks through data of patent US20110257233A1, “BENZOISOTHIAZOLONES AS INHIBITORS OF PHOSPHOMANNOSE ISOMERASE” (Sanford-Burnham Medical Research Institute, priority 2010, published 2011).

Take `O=c1c2ccccc2sn1-c1ccccc1` [Compound 1, 2-Phenyl-2-hydrobenzo[d]isothiazol-3-one]: the pIC50 (as a rule, the negative decadic logarithm of the IC50, by convention in mol/L) in data set [1] is 5.19.
In the case of `C[C@@H]1[C@H](O)[C@@H](C)/C=C/C=C/C=C/C=C/C=C/C=C/C=C/[C@H](O[C@@H]2O[C@H](C)[C@@H](O)[C@H](N)[C@@H]2O)C[C@@H]2O[C@](O)(C[C@@H](O)C[C@@H](O)[C@H](O)CC[C@@H](O)C[C@@H](O)CC(=O)O[C@H]1C)C[C@H](O)[C@H]2C(=O)O` [Amphotericin B Solubilized, reference compound], the “CONCURRENT (reference compound data)” value in [2] (setting [9]) and in data set [3] (setting [9]) was 0.1 µg/mL in each case.
As for `CN(C)c1ccc(-n2sc3ccccc3c2=O)cc1` [Compound 12, 2-[4-(Dimethylamino)phenyl]-2-hydrobenzo[d]isothiazol-3-one], the pIC50 was 5.72 in [1] (setting [10]) and 4.88 in data set [4]. Besides, the “fold increase in the amount of mannose incorporated in proteins vs glycolysis” value (“fold increase in the amount” below) in data set [5] (50 μM) is 1.0 fold.
In data set [1] (setting [10]), `Cc1ccccc1-n1sc2cc(F)ccc2c1=O` [Compound 16, 6-Fluoro-2-o-tolylbenzo[d]isothiazol-3(2H)-one] gave a negative-log IC50 (pIC50) of 5.54. Moreover, the “fold increase in the amount” value is given as 2.8 fold in data set [5] (25.0 μM), 1.7 fold in data set [5] (50 μM) and 2.7 fold in data set [5] (12.5 (head prints no unit)). Besides, in [6], the Permeability entry is “Medium”. The “Plasma Stability (% remaining after 1 hour)” value in “Plasma stability, human” stood at 49.7 % remaining; in the data set “Plasma stability, mouse”, 117.5 % remaining. Besides, the “Microsomal Stability (% remaining after 1 hour)” value in data set [7] was 90 % remaining; in [8], 90.03 % remaining.
In data set [4], `COc1ccc(-n2sc3ccc(F)cc3c2=O)cc1` [Compound 22, 5-Fluoro-2-(4-methoxyphenyl)-2-hydrobenzo[d]isothiazol-3-one] gave a pIC50 of 5.04. In addition, the Permeability entry in [6] is reported as “Low”. Further, the “Plasma Stability (% remaining after 1 hour)” value turned out to be 107.0 % remaining in “Plasma stability, human” and 96.3 % remaining in the data set “Plasma stability, mouse”. Moreover, the “Microsomal Stability (% remaining after 1 hour)” value in data set [7] is recorded as 100 % remaining; in data set [8], 84.06 % remaining.
Consider `COc1ccc(-n2sc3cc(F)ccc3c2=O)cc1` [Compound 18], for which the pIC50 in data set [4] is 4.89.
As to `O=c1c2ccccc2sn1-c1cccc(C(F)(F)F)c1` [Compound 5, 2-[3(Trifluoromethyl)phenyl]-2-hydrobenzo[d]isothiazol-3-one], the results for the pIC50 in data set [1] (setting [10]) and in [4] were 5.47 and less than 4.70, respectively.
As to `COC(=O)c1cccc(-n2sc3ccccc3c2=O)c1` [Compound 9], the pIC50 in data set [1] (setting [10]) was 5.31; in data set [4], less than 4.70.
`O=c1c2ccccc2sn1-c1cccc(Cl)c1` [Compound 7, 2(3-Chlorophenyl)-2-hydrobenzo[d]isothiazol-3-one] showed a pIC50 in data set [1] (setting [10]) of 5.32.
Consider `CCOC(=O)c1ccc(-n2sc3ccccc3c2=O)cc1` [Compound 10], for which the pIC50 in data set [1] (setting [10]) was 5.14.
`COc1cccc(-n2sc3ccccc3c2=O)c1` [Compound 15, 2-(3-Methoxyphenyl)-2-hydrobenzo[d]isothiazol-3-one]: the pIC50 is 5.43 in data set [1] (setting [10]) and less than 4.70 in data set [4].
Regarding `Cc1ccc(-n2sc3ccccc3c2=O)cc1` [Compound 4, 2-(4-Methylphenyl)-2-hydrobenzo[d]isothiazol-3-one], the pIC50 in data set [1] (setting [10]) is 5.44.
For `O=c1c2cc(F)ccc2sn1-c1ccc(F)cc1` [Compound 21, 5-Fluoro-2-(4-fluorophenyl)-2-hydrobenzo[d]isothiazol-3-one], the negative-log IC50 (pIC50) in [4] is less than 4.70. Besides, the Permeability entry in data set [6] was “High”. The “Plasma Stability (% remaining after 1 hour)” value came to 0.0 % remaining in “Plasma stability, human” and 71.4 % remaining in “Plasma stability, mouse”. Also, the figures for the “Microsomal Stability (% remaining after 1 hour)” value in data set [7] and in [8] were 24.93 % remaining and 81.24 % remaining, respectively.
`Cc1ccc(C)c(-n2sc3cc(F)ccc3c2=O)c1` [Compound 17]: the pIC50 in data set [1] (setting [10]) was 5.96; in data set [4], 5.14.
Turning to `O=c1c2cc(F)ccc2sn1-c1ccccc1` [Compound 19, 5-Fluoro-2-phenylbenzo[d]isothiazol-3(2H)-one], the pIC50 in [1] (setting [10]) is 5.89; in data set [4], less than 4.70. In addition, the PMM inhibition result in [4] (tested up to 20 μM) is “inactive”. Also, the MIC was found to be 3000 µg/mL (≈ 12.2 mM) in data set [2] (ATCC10231, Candida albicans, turbidity, read-out: minimal inhibitory concentration) and 1000 µg/mL (≈ 4.08 mM) in [3] (ATCC24067, Cryptococcus neoformans, turbidity, read-out: minimal inhibitory concentration).
On to `O=c1c2cc(F)ccc2sn1-c1ccccc1F` [Compound 23], for which, in data set [1] (setting [10]), the negative logarithm of the IC50 (pIC50) was 5.37. For the same compound, the “fold increase in the amount” value in data set [5] (25.0 μM) is reported as 0.7 fold; in [5] (50 μM) it was 2.5 fold; in data set [5] (12.5 (head prints no unit)), 9.1 fold. In addition, the Permeability result in data set [6] is reported as “Medium”. Further, the “Plasma Stability (% remaining after 1 hour)” value in the data set “Plasma stability, human” was determined as 35.7 % remaining; in the data set “Plasma stability, mouse”, 106.7 % remaining. Further, the “Microsomal Stability (% remaining after 1 hour)” value in [7] was determined as 27.66 % remaining; in data set [8], 98.40 % remaining.
The compound `O=c1c2cc(F)ccc2sn1-c1ccc(Cl)cc1` [Compound 24, 2-(4-Chlorophenyl)-5-fluoro-2-hydrobenzo[d]isothiazol-3-one] gave a negative logarithm of the IC50 (pIC50) in data set [1] (setting [10]) of 5.74.
In the case of `Cc1ccc(C)c(-n2sc3ccc(F)cc3c2=O)c1` [Compound 20], the values for the pIC50 in data set [1] (setting [10]) and in data set [4] were 5.72 and less than 4.70, respectively. Moreover, the “fold increase in the amount” value in data set [5] (25.0 μM) is given as 2.3 fold; in data set [5] (50 μM), 3.2 fold; in data set [5] (12.5 (head prints no unit)) it was 1.9 fold. Besides, the Permeability result in data set [6] is on record as “Medium”. Also, the “Plasma Stability (% remaining after 1 hour)” value in the data set “Plasma stability, human” is given as 96.7 % remaining; in “Plasma stability, mouse”, 99.4 % remaining. For the same compound, the results for the “Microsomal Stability (% remaining after 1 hour)” value in [7] and in data set [8] were 100 % remaining and 85.04 % remaining, respectively.
`Cc1cccc(-n2sc3ccccc3c2=O)c1` [Compound 3, 2-(3-Methylphenyl)-2-hydrobenzo[d]isothiazol-3-one] had a pIC50 in [1] (setting [10]) of 5.22.
